Results: US20120028917A1, “Use Of N-(4-((3-(2-Amino-4-Pyrimidinyl)-2-Pyridinyl)Oxy)Phenyl)-4-(4-Methyl-2-Thienyl)-1-Phthalazinamine In The Treatment Of Antimitotic Agent Resistant Cancer” (Amgen Inc., priority 2009, published 2012)

Assays:
MES-SA Dx5 = experiment: p-Histone H3 assay (ArrayScan VTi); type: cell-based; conditions: Homo sapiens, 24 h; MES-SA Dx5, Uterine, Doxorubicin-selected, P-gp overexpressing
Procedure: (§1) MES-SA Dx5 and MES-SA cells were plated at a density of 10,000 cells/well onto 96-well plate in complete media and cultured for 24 hours. […] Cells were washed and fixed by adding 100 μL of 2× formaldehyde fixation buffer for 10 minutes and room temperature. […] Cells were immunostained with p-histone H3 antibody (5 μg/mL) and incubated at room temperature for 2 hours. Cells were washed in 100 μL of wash buffer. Next, cells were incubated with a goat anti-rabbit alexa-488 conjugated antibody (1.5 μg/mL) in wash buffer supplemented with Hoechest DNA dye (1 μg/mL) and incubated at room temperature in the dark for 30 minutes. Cells were washed twice with 100 μL of wash buffer. The 96-well plates were analyzed on an ArrayScan VTi (Cellomics) using a bioapplication algorithm (TargetActivation.V2). […] Cells were then fixed and stained with p-histone H3 antibody and counterstained with a DNA dye (Hoechest). Imaging-based analysis (ArrayScan VTi) was performed to measure the percentage of p-histone H3 positive cells. The dose-response curves represent either AMG 900 or taxol concentrations plotted against p-Histone H3 positive cells as a percentage of DMSO-treated control (POC). The EC50 values were calculated by 4-parameter fit model.

MES-SA = experiment: p-Histone H3 assay (ArrayScan VTi); type: cell-based; conditions: Homo sapiens, 24 h, Uterine, Parent line
Procedure: as §1

HCT15 xenograft = experiment: Xenograft tumor growth inhibition (Example 3); type: in vivo, athymic nude mice; conditions: HCT15, Colon; oral BID, best of intermittent or continuous dose schedule
Procedure: (§2) To investigate whether AMG 900-induced suppression of aurora kinase activity inhibits cell proliferation, the antiproliferative efficacy of AMG 900 was evaluated in-vivo in multiple human cancer xenograft models, including breast, colon, leukemia, lung, pancreatic, and uterine cancer models, grown in athymic nude mice. Mice were administered AMG 900 orally at 3.75, 7.5, or 15 mg/kg BID for 2 consecutive days per week or 3 mg/kg BID everyday for the duration of the study beginning when tumors were established. The reagents, solutions, equipment, formulation of AMG 900, tumor volume measurements and calculations were generally as described in Example 4 below.
(§3) The effect of AMG 900 was tested on the multidrug resistant cell line MES-SA Dx5 grown in vivo as a tumor xenograft. Mice were administered AMG 900 orally at 15 mg/kg BID for 2 consecutive days per week or 3.0 mg/kg BID everyday for the duration of the study. Dosing was initiated when tumors were established (10 days after tumor implantation).

[1] = test system: NCI-H460-Taxol-r xenograft; experiment: Xenograft tumor growth inhibition (Example 3); type: in vivo, athymic nude mice; conditions: Lung, oral BID, best of intermittent or continuous dose schedule
Procedure: as §2, §3

HCT116 AZD1152-resistant [2] = experiment: ≧4N DNA content assay (FIG. 6-A); type: cell-based; conditions: Homo sapiens, HCT-116; HCT116 AZD1152-resistant subline; 24 hours; read-out: cellular ≧4N DNA content EC50
Procedure: Tumor cell lines were obtained from the American Type Culture Collection (ATCC) unless otherwise specified. The MDA-MB-231-PTX and NCI-H460-PTX cell lines were established by growing the cells in the presence of increasing concentrations of paclitaxel over a period of 6 months. The HCT116 AZD1152-resistant cell line was established by growing the cells in the presence of AZD1152 at 80 nmol/L.
Tumor cells were treated with AMG 900, AZD1152, MK-0457, or PHA-739358 (range concentration varied based on potency) for 24 hours and processed for cell-cycle analysis (DNA staining only) as previously described (1). Cells were analyzed on a LSRII flow cytometer using BD FACS Diva software. The concentration-response curves and corresponding EC50 values were calculated using the percentage of cells with ≧4N DNA content versus the DMSO control.
HCT116 cell lines were treated with increasing concentrations of AMG 900 or AZD1152 for 24 hours. Flow cytometry was used to assess the accumulation of cells with ≧4N DNA content expressed as a percentage of the DMSO-treated control (POC). The concentration-response curves and calculated EC50 values were determined from two independent experiments (bars, ±SD).

HCT116 parental = experiment: Colony formation assay (FIG. 6-B); type: cell-based, human; conditions: 48 hours treatment, re-plated drug-free
Procedure: Cells were grown until the DMSO control wells were confluent. Cells were stained with crystal violet dye (Sigma), washed with distilled water, and imaged using a digital scanner (Hewlett-Packard). Colony formation assay was performed with HCT116 cell lines (parental and AZD1152-resistant). Cells were treated with DMSO, AMG 900, AZD1152, or paclitaxel at the indicated concentrations for 48 hours and re-plated in complete media lacking the inhibitor. After the DMSO-treated cells reached confluence, the cells were stained with crystal violet and imaged (duplicate wells).

HCT116 AZD1152-resistant [3] = experiment: Colony formation assay (FIG. 6-B); type: cell-based, human; conditions: HCT116 AZD1152-resistant; 48 hours treatment, re-plated drug-free
Procedure: Tumor cell lines were obtained from the American Type Culture Collection (ATCC) unless otherwise specified. The MDA-MB-231-PTX and NCI-H460-PTX cell lines were established by growing the cells in the presence of increasing concentrations of paclitaxel over a period of 6 months. The HCT116 AZD1152-resistant cell line was established by growing the cells in the presence of AZD1152 at 80 nmol/L. Tumor cells were treated with AMG 900, paclitaxel or AZD1152 (0.5, 5, 50 nmol/L) for 48 hours, washed twice with complete media, and cells were re-plated at a density of 5000 cells per well in drug-free complete media. Cells were grown until the DMSO control wells were confluent. Cells were stained with crystal violet dye (Sigma), washed with distilled water, and imaged using a digital scanner (Hewlett-Packard). Colony formation assay was performed with HCT116 cell lines (parental and AZD1152-resistant). Cells were treated with DMSO, AMG 900, AZD1152, or paclitaxel at the indicated concentrations for 48 hours and re-plated in complete media lacking the inhibitor. After the DMSO-treated cells reached confluence, the cells were stained with crystal violet and imaged (duplicate wells).

[4] = test system: multiple human cancer xenograft models; experiment: Xenograft panel, Example 3 (summary); type: in vivo, athymic nude mice; conditions: all xenograft models tested; oral 3.75, 7.5 or 15 mg/kg BID 2 consecutive days per week or 3 mg/kg BID everyday
Procedure: as §2

Cc1csc(-c2nnc(Nc3ccc(Oc4ncccc4-c4ccnc(N)n4)cc3)c3ccccc23)c1 [AMG 900, N-(4-((3-(2-amino-4-pyrimidinyl)-2-pyridinyl)oxy)phenyl)-4-(4-methyl-2-thienyl)-1-phthalazinamine]
EC50 (MES-SA Dx5): < 2 nM | EC50 (MES-SA): < 2 nM | % TGI (tumor growth inhibition) (HCT15 xenograft): 51% | % TGI (tumor growth inhibition) [1]: 66% | EC50 (HCT116 AZD1152-resistant [2]): 5 nM | concentrations inhibiting colony formation (HCT116 parental): ≥ 5 nmol/L | concentrations inhibiting colony formation (HCT116 AZD1152-resistant [3]): ≥ 5 nmol/L | tumor growth vs vehicle control [4]: significantly inhibited tumor growth
